Data published in PubChem BioAssay AID248 (DTP/NCI, 2004).
Several values for one entry are separate records, joined by “and”; a condition that tells them apart may be missing. Equal entries are not always repeated. Toxic doses and inconclusive results are not listed. Rule as the data show it: active = T/C of 150% or more; inactive = T/C below 125%.

Tested on: L1210 leukemia ip in BDF1 mice, survival T/C
Test: NCI In Vivo Anticancer Drug Screen. Data for tumor model L1210 Leukemia (intraperitoneal) in B6D2F1 (BDF1) mice
Details: endpoint: mean survival time, higher = longer survival
How it was run: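 Transplanted-tumor mice were given test agent; controls received vehicle only. Survival readings from the two groups were divided (treated over control).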

[1] = dose: 100.0 mg/kg/injection, schedule: Q01DX009 (ip), vehicle: Klucel (hydroxypropylcellulose) (HPC)
[2] = dose: 100.0 mg/kg/injection, schedule: Q04DX002 (ip), vehicle: Klucel (hydroxypropylcellulose) (HPC)
[3] = dose: 100.0 mg/kg/injection, schedule: Q04DX003 (ip), vehicle: Klucel (hydroxypropylcellulose) (HPC)
[4] = dose: 200.0 mg/kg/injection, schedule: Q01DX009 (ip), vehicle: Klucel (hydroxypropylcellulose) (HPC)
[5] = dose: 200.0 mg/kg/injection, schedule: Q04DX002 (ip), vehicle: Klucel (hydroxypropylcellulose) (HPC)
[6] = dose: 200.0 mg/kg/injection, schedule: Q04DX003 (ip), vehicle: Klucel (hydroxypropylcellulose) (HPC)
[7] = dose: 400.0 mg/kg/injection, schedule: Q01DX009 (ip), vehicle: Klucel (hydroxypropylcellulose) (HPC)
[8] = dose: 400.0 mg/kg/injection, schedule: Q04DX003 (ip), vehicle: Klucel (hydroxypropylcellulose) (HPC)
[9] = dose: 50.0 mg/kg/injection, schedule: Q01DX009 (ip), vehicle: Klucel (hydroxypropylcellulose) (HPC)
[10] = dose: 100.0 mg/kg/injection, schedule: Q04DX003 (ip), vehicle: saline with Tween-80
[11] = dose: 200.0 mg/kg/injection, schedule: Q04DX003 (ip), vehicle: saline with Tween-80
[12] = dose: 400.0 mg/kg/injection, schedule: Q04DX003 (ip), vehicle: saline with Tween-80
[13] = dose: 100.0 mg/kg/injection, schedule: Q04DX002 (ip), vehicle: saline with Tween-80
[14] = dose: 200.0 mg/kg/injection, schedule: Q04DX002 (ip), vehicle: saline with Tween-80
[15] = dose: 25.0 mg/kg/injection, schedule: Q01DX009 (ip), vehicle: Klucel (hydroxypropylcellulose) (HPC)

Measured: T/C

COc1ccc(C(O)c2cnc(C)n2Cc2ccccc2)cc1 (stereo not given)
inactive: dose: 100.0 mg/kg/injection, schedule: Q01DX001 (ip), vehicle: Klucel (hydroxypropylcellulose) (HPC) 93 % of control | [1] 101 % of control and 105 % of control | [2] 94 % of control and 98 % of control and 106 % of control | [3] 93 % of control | dose: 200.0 mg/kg/injection, schedule: Q01DX001 (ip), vehicle: Klucel (hydroxypropylcellulose) (HPC) 102 % of control | [4] 100 % of control and 101 % of control | [5] 92 % of control and 95 % of control and 88 % of control | [6] 93 % of control | dose: 400.0 mg/kg/injection, schedule: Q01DX001 (ip), vehicle: Klucel (hydroxypropylcellulose) (HPC) 97 % of control | [7] 96 % of control and 90 % of control | dose: 400.0 mg/kg/injection, schedule: Q04DX002 (ip), vehicle: Klucel (hydroxypropylcellulose) (HPC) 95 % of control and 98 % of control and 91 % of control | [8] 95 % of control

COc1cccc[n+]1CC(=O)c1ccccc1
inactive: [9] 95 % of control | [1] 98 % of control | [4] 95 % of control

CC(C)C(=O)NC(Cc1ccccc1)C(=O)N(Cc1ccccc1)N=O (stereo not given)
inactive: dose: 32.0 mg/kg/injection, schedule: Q04DX002 (ip), vehicle: Klucel (hydroxypropylcellulose) (HPC) 94 % of control | dose: 63.0 mg/kg/injection, schedule: Q04DX002 (ip), vehicle: Klucel (hydroxypropylcellulose) (HPC) 97 % of control | dose: 125.0 mg/kg/injection, schedule: Q04DX002 (ip), vehicle: Klucel (hydroxypropylcellulose) (HPC) 94 % of control

CCOC(=O)C1=C(O)C(=O)C(C(=O)OCC)C1 (stereo not given)
inactive: dose: 75.0 mg/kg/injection, schedule: Q01DX001 (ip), vehicle: saline 86 % of control | dose: 150.0 mg/kg/injection, schedule: Q01DX001 (ip), vehicle: saline 106 % of control | dose: 300.0 mg/kg/injection, schedule: Q01DX001 (ip), vehicle: saline 90 % of control

O=C(Sc1ccccc1)C1OC1(c1ccccc1)c1ccccc1 (stereo not given)
inactive: [3] 97 % of control | [6] 88 % of control

COC(=O)c1cc(Cl)cc(C(=O)OC)c1
inactive: [10] 96 % of control | [11] 93 % of control | [12] 93 % of control

COc1ccc(C=NC(C)(C)CO)cc1OC
inactive: dose: 100.0 mg/kg/injection, schedule: Q01DX001 (ip), vehicle: steriod suspending solution 108 % of control | dose: 200.0 mg/kg/injection, schedule: Q01DX001 (ip), vehicle: steriod suspending solution 103 % of control | dose: 400.0 mg/kg/injection, schedule: Q01DX001 (ip), vehicle: steriod suspending solution 101 % of control

IC[P+](c1ccccc1)(c1ccccc1)c1ccccc1
inactive: dose: 75.0 mg/kg/injection, schedule: Q01DX001 (ip), vehicle: carboxymethylcellulose (CMC) 106 % of control

CCS(=O)(=O)N1CCC(C)CC1
inactive: [13] 96 % of control | [14] 101 % of control | dose: 400.0 mg/kg/injection, schedule: Q04DX002 (ip), vehicle: saline with Tween-80 103 % of control

CN(C)C(=O)C(=O)C1C=Cc2ccccc21 (stereo not given)
inactive: [10] 93 % of control | [11] 88 % of control | [12] 102 % of control

CC1=CC(=O)[C@@H](O)[C@]2(C)[C@H]3[C@@]4(O)OC[C@]35[C@H]([C@@H](C)[C@H]4O)[C@@H](O)C(=O)O[C@@H]5C[C@@H]12
inactive: dose: 2.5 mg/kg/injection, schedule: Q01DX009 (ip), vehicle: saline 107 % of control | dose: 5.0 mg/kg/injection, schedule: Q01DX009 (ip), vehicle: saline 96 % of control | dose: 10.0 mg/kg/injection, schedule: Q01DX009 (ip), vehicle: saline 102 % of control | dose: 20.0 mg/kg/injection, schedule: Q01DX009 (ip), vehicle: saline 100 % of control

CCNNC
inactive: dose: 12.5 mg/kg/injection, schedule: Q04DX003 (ip), vehicle: saline 104 % of control | dose: 25.0 mg/kg/injection, schedule: Q04DX003 (ip), vehicle: saline 103 % of control | dose: 50.0 mg/kg/injection, schedule: Q04DX003 (ip), vehicle: saline 101 % of control | dose: 100.0 mg/kg/injection, schedule: Q04DX003 (ip), vehicle: saline 111 % of control | dose: 200.0 mg/kg/injection, schedule: Q04DX003 (ip), vehicle: saline 108 % of control

Nc1cc2c3c(cccc3c1Br)C(=O)OC2=O
inactive: [2] 97 % of control | [5] 108 % of control

CC1(C)N=C(N)N=C(N)N1c1cc(Cl)c(Cl)cc1Cl
inactive: dose: 6.0 mg/kg/injection, schedule: Q01DX009 (ip), vehicle: Klucel (hydroxypropylcellulose) (HPC) 105 % of control | dose: 12.0 mg/kg/injection, schedule: Q01DX009 (ip), vehicle: Klucel (hydroxypropylcellulose) (HPC) 103 % of control | dose: 12.0 mg/kg/injection, schedule: Q04DX003 (ip), vehicle: Klucel (hydroxypropylcellulose) (HPC) 95 % of control | [15] 96 % of control and 102 % of control | dose: 25.0 mg/kg/injection, schedule: Q04DX003 (ip), vehicle: Klucel (hydroxypropylcellulose) (HPC) 101 % of control | [9] 108 % of control | dose: 50.0 mg/kg/injection, schedule: Q04DX003 (ip), vehicle: Klucel (hydroxypropylcellulose) (HPC) 102 % of control

c1cc(Cc2ccc3c(c2)OCO3)c[nH]1
inactive: dose: 50.0 mg/kg/injection, schedule: Q04DX002 (ip), vehicle: saline with Tween-80 103 % of control | [13] 110 % of control | [14] 100 % of control

Cc1ccc(S(=O)(=O)C2CCCC2Cl)cc1 (stereo not given)
inactive: dose: 100.0 mg/kg/injection, schedule: Q01DX001 (ip), vehicle: carboxymethylcellulose (CMC) 109 % of control | dose: 100.0 mg/kg/injection, schedule: Q01DX001 (ip), vehicle: saline 107 % of control | dose: 200.0 mg/kg/injection, schedule: Q01DX001 (ip), vehicle: carboxymethylcellulose (CMC) 104 % of control | dose: 200.0 mg/kg/injection, schedule: Q01DX001 (ip), vehicle: saline 104 % of control | dose: 400.0 mg/kg/injection, schedule: Q01DX001 (ip), vehicle: carboxymethylcellulose (CMC) 104 % of control | dose: 400.0 mg/kg/injection, schedule: Q01DX001 (ip), vehicle: saline 87 % of control

CCCCCCCCCCCCCCCCS(=O)(=O)c1ccc(NN)cc1
inactive: [1] 89 % of control | [3] 97 % of control | [4] 91 % of control | [6] 98 % of control | [7] 90 % of control | [8] 105 % of control

C=C(C)C1CCC2(C(=O)OC)CCC3(C)C(CCC4C5(C)CCC(OC6CCCCO6)C(C)(C)C5CCC43C)C12 (stereo not given)
inactive: dose: 25.0 mg/kg/injection, schedule: Q04DX002 (ip), vehicle: saline with Tween-80 86 % of control | [13] 86 % of control

Cc1cc(NC(=O)Nc2ccc(Cl)cc2C)no1
inactive: dose: 12.5 mg/kg/injection, schedule: Q01DX009 (ip), vehicle: Klucel (hydroxypropylcellulose) (HPC) 102 % of control | [15] 97 % of control | [9] 91 % of control

C/C(=N/O)c1ccc(/C(C)=N/O)cc1
inactive: dose: 75.0 mg/kg/injection, schedule: Q01DX009 (ip), vehicle: saline with Tween-80 104 % of control | [10] 95 % of control | dose: 150.0 mg/kg/injection, schedule: Q01DX009 (ip), vehicle: saline with Tween-80 107 % of control | dose: 200.0 mg/kg/injection, schedule: Q01DX009 (ip), vehicle: saline with Tween-80 107 % of control | [11] 96 % of control | [12] 95 % of control
